# Where “and” joins values, the source holds several entries; their conditions need not be identical. Equal entries are not always repeated. Numbers after ± are expanded uncertainties.
# Settings: 101 kPa, Liquid
SMILES,mass density (303.15 K) [kg/m3],viscosity (303.15 K) [mPa·s],mass density (308.15 K) [kg/m3],viscosity (308.15 K) [mPa·s],mass density (313.15 K) [kg/m3],viscosity (313.15 K) [mPa·s],mass density (318.15 K) [kg/m3],viscosity (318.15 K) [mPa·s],mass density (323.15 K),viscosity (323.15 K) [mPa·s]
CC(C)O [propan-2-ol],776.4 ± 1.9,1.792 ± 0.081,772.6 ± 2,1.553 ± 0.071,768.6 ± 2.1,1.355 ± 0.062,763.9 ± 2.3,1.182 ± 0.055,758.8 ± 2.4 kg/m3,1.041 ± 0.049
C[S+](C)[O-] [dimethyl sulfoxide],1090.7 ± 2.9,1.832 ± 0.082,1084.7 ± 3,1.67 ± 0.076,1082.3 ± 3.2,1.537 ± 0.07,1075.1 ± 3.2,1.408 ± 0.065,1070.1 ± 3.4 kg/m3 and 1070 ± 3.4 kg/m3,1.289 ± 0.06
CCO [ethanol],783.4 ± 2,1.086 ± 0.051,779 ± 2.1,0.9732 ± 0.047,774.6 ± 2.2,0.8596 ± 0.042,769.8 ± 2.3,0.8284 ± 0.041,766.1 ± 2.4 kg/m3,0.7493 ± 0.037

# Reference: the NIST ThermoML archive (doi:10.1016/j.jct.2006.10.016)
